{"source": "paper PMC8911181", "about": "“A Novel CDK4/6 and PARP Dual Inhibitor ZC-22 Effectively Suppresses Tumor Growth and Improves the Response to Cisplatin Treatment in Breast and Ovarian Cancer” (International Journal of Molecular Sciences, 2022)", "tested_on": "OVCAR5 xenograft tumors", "experiment": "Ovarian cancer xenograft mouse model, tumor growth", "assay_type": "in vivo, mice", "details": "1.5 mg/kg cisplatin and 50 mg/kg ZC-22 ip", "experimental": "Six-week-old female athymic nude mice (Homozygous) were purchase from Vital River Laboratories (Beijing, China) and maintained under the guidelines for laboratory animals of Nankai university (NKU). Mice were injected subcutaneously with 2 × 10^6 MDA-MB-231 or 8 × 10^6 OVCAR5 cells. When tumors were 50–100 mm^3 in size, the mice were randomly grouped and treated intraperitoneal (i.p.) with 50 mg/kg of Olaparib, 50 mg/kg of LY2835219, 50 mg/kg of ZC-22, or 1.5 mg/kg of cisplatin alone or in combinations or with the vehicle (PBS containing 10% DMSO and 10% 2-hydroxy-propyl-β-cyclodextrin) every 2 days. Tumor volume was measured every 3–4 days, which was calculated as Length × Width^2/2. At the end of the study, tumor and major organ tissues were harvested by surgery. For histopathological analysis, tissue samples were washed with PBS, fixed in 4% paraformaldehyde (PFA), paraffin-embedded, and sectioned into 7 μm thickness. […]\nFigure 7 ZC-22 increases the efficacy of cisplatin treatment in ovarian cancer cells in vivo. […] Tumor volumes were measured every 2–3 days. […] (B,C) Pictures (B) and quantification of the size (C) of the OVCAR5 xenograft tumors at the end points. […] (D,E) Representative pictures (D) and quantification of percentage (E) of Ki67 and γH2A.X-positive cells in immunohistochemical staining of the OVCAR5 xenograft tumor tissues. […]", "data": [{"compound": "Cc1nc2c(F)cc(-c3nc(Nc4ccc(N5CCN(C(=O)c6cc(Cc7n[nH]c(=O)c8ccccc78)ccc6F)CC5)cn4)ncc3F)cc2n1C(C)C", "note": "[ZC-22, 4-(4-fluoro-3-(4-(6-((5-fluoro-4-(4-fluoro-1-isopropyl-2-methyl-1H-benzo[d]imidazole-6-yl)pyrimidin-2-yl)amino)pyridin-3-yl)piperazine-1-carbonyl)benzyl)phthalazin-1(2H)-one]", "values": [{"measurement": "sensitization to cisplatin treatment (tumor growth)", "value": "significantly sensitized ovarian cancer cells to cisplatin treatment"}]}]}
